“And” between values parts separate entries of the source, which are not always exact repeats. Equal values may be shown once.
Experiments:
[1] = system: monosodium urate (MSU) crystal-induced air pouch inflammation; assay: Air Pouch Model 1: MSU crystal air pouch, rodent model of gout; type: in vivo, male Sprague-Dawley rats; conditions: for Average Exudate Volume / Average Plasma Extravasation, OD620 nm / Total WBC in Sample / WBC: +MSU, 4 h
Protocol: The objective of this study was to evaluate the anti-inflammatory affects of tranilast versus a clinically active treatment for gout, colchicine, as well as a clinically active non-steroidal antiinflammatory drug, indomethacin. This evaluation was carried out in male Sprague-Dawley rats in a rodent model of gout. The animals were injected subcutaneously with 20 ml of sterile air, followed three days later by a supplemental injection with 20 ml of sterile air. Six days after the initial sterile air injection, the rats were injected intravenously with Evan's Blue and pretreated for thirty minutes with either a subcutaneous injection of colchicine (1 mg/kg) or indomethacin (5 mg/kg) or oral administration with either 200 mg/kg or 400 mg/kg of tranilast. After the pretreatment period, the rats were injected with 150 mg of monosodium urate (MSU) crystals (10 mg·ml) into the air pouch. Four hours later, the air pouch was injected with 5 ml heparinized saline and the entire contents of the air pouch removed, recording the total volume. The air pouch contents were evaluated for plasma extravasation and total white blood cell (WBC) count.
(§1) On day 0 the rats were anesthetized in a biological cabinet, the nape of the neck was cleansed with 70% isopropanol followed by iodine tincture (VEDCO, lot L021976). Twenty ml sterile (0.22 μm, Fisher Scientific, Cat. 09-720-3, lot R5SN25683) air was injected subcutaneously using a 23 G×2 inch needle fixed to a 20 ml syringe. The rats were returned to routine housing. No adverse reactions were observed.
as §1, with “day 3” for “day 0”
On day 6 the rats were weighed (Mettler, Model PE3000, SN: F69474) and sorted into six treatment groups of ten animals each, based upon average weight. The animals were either dosed subcutaneously with 1 ml/kg colchicine or indomethacin, or orally with either 4 ml/kg or 8 ml/kg tranilast, or 8 ml/kg vehicle. Immediately after test material administration, the rats were intravenously injected with 2 ml/kg Evans Blue.
Thirty minutes after test material administration, the rats were anesthetized and five groups were injected into the air pouch with 15 ml MSU using an 18 G×1 inch needle fitted to a 20 ml syringe. The sixth group was injected with 15 ml saline. The rats were returned to their cages, no adverse affects were observed.
Four hours after MSU injection, the rats were anesthetized and 5 ml 10 U/ml heparinized saline was injected into the air pouch. The air pouch was gently massaged, the contents immediately removed using a 14 G×1 inch needle fitted to a 6 ml syringe, and the exudate volume recorded. An aliquot of the exudate was transferred to heparin-treated microtainer tubes (Becton Dickinson, Cat. 365958, lot 8093666, exp. June 09) for white blood cell (WBC) counting. The remainder of the exudate was centrifuged (Hermle Labrotechnik, Model Z200A, SN: 44060036), the supernatants removed and evaluated at OD620nm (Spectronic Unicam, Model 4000 1/4, SN: 3SGD003006) for plasma extravasation.

[2] = system: serum uric acid (sUA) levels; assay: Study A3006GT: phase 2 crossover, sUA in healthy subjects with screening sUA of at least 7.1 mg/dL; tranilast, febuxostat, combination; type: in vivo, human
Protocol: Study A3006GT was a phase 2, randomized, double-blind, 3-period, 3-treatment crossover trial. The primary objective was to compare the effects of three treatments on serum uric acid (sUA) levels in healthy subjects with a screening sUA level of at least 7.1 mg/dL. The three treatments were: 300 mg QD tranilast and 40 mg QD febuxostat (C); 300 mg QD tranilast alone (T); 40 mg QD febuxostat alone (F).
The study was conducted in 23 subjects. […] With two exceptions, every subject provided data for all three treatments. Subject 1001 completed only the first two periods of the study (C and F). […] Therefore, the period 3 data for subject 1024 are excluded from the analyses presented here.
Two endpoints were considered: change from baseline to day 7 in sUA; and percent change from baseline to day 7 in sUA. For each endpoint, an analysis of variance (ANOVA) model for a three-period crossover trial was used. The model included effects for sequence, subject within sequence, treatment, and period. The sequence effect was tested using the subject within sequence mean square as the error term. Two pairwise comparisons between treatments were tested: C−F and C−T. In addition, the two-sided 95% confidence interval for each of these differences was computed.
For each subject for which results were available from all three treatments, the difference between the change for C and the sum of the changes for F and T was computed. Although the true magnitude of the difference between these two values is not known, a conservative null hypothesis is that this difference should be equally likely to be greater than or less than zero. The sign test and the Wilcoxon signed rank test were used to test this null hypothesis.
Using the change for each subject as the dependent variable, an analysis of variance (ANOVA) model for a three-period crossover trial was fit. This model included effects for sequence, subject within sequence, treatment, and period. Using the least squares estimates of the mean changes for each treatment, along with the 3×3 covariance matrix of these three estimates, the mean and SD of the difference between C and F+T was estimated, as follows.

[3] = 5 mg/kg indomethacin subcutaneous, 30 min before MSU
[4] = Group 3: indomethacin 5 mg/kg subcutaneous
[5] = end of 1-week treatment (day 7), C: 300 mg QD tranilast + 40 mg QD febuxostat, T: 300 mg QD, F: 40 mg QD
[6] = individual subjects, per study period, end of the 1-week treatment period
[7] = 1 mg/kg colchicine subcutaneous, 30 min before MSU
[8] = Group 2: colchicine 1 mg/kg subcutaneous

SMILES: COc1ccc2c(c1)c(CC(=O)O)c(C)n2C(=O)c1ccc(Cl)cc1 [Indomethacin]
- reduction in inflammatory cell infiltration into the air pouch [1, 3]: 94%
- reduction of plasma extravasation [1, 3]: 69%
- Average Exudate Volume [1, 4]: 4.9 mL
- Average Plasma Extravasation, OD620 nm [1, 4]: 0.505
- Total WBC in Sample [1, 4]: 18520000
- WBC [1, 4]: 4160000 cells/ml

SMILES: Cc1nc(-c2ccc(OCC(C)C)c(C#N)c2)sc1C(=O)O [F]
- sUA Change from Baseline, Max [2, 5]: -0.70 mg/dL
- sUA Change from Baseline, Mean [2, 5]: -2.75 mg/dL
- sUA Change from Baseline, Median [2, 5]: -2.85 mg/dL
- sUA Change from Baseline, Min [2, 5]: -3.80 mg/dL
- sUA Percent Change from Baseline, Max [2, 5]: −9.21%
- sUA Percent Change from Baseline, Mean [2, 5]: −35.32%
- sUA Percent Change from Baseline, Median [2, 5]: −36.86%
- sUA Percent Change from Baseline, Min [2, 5]: −48.68%
- sUA Change from baseline [2, 6]: −0.7 mg/dL and −2.9 mg/dL (2×) and −2.1 mg/dL (2×) and −1.2 mg/dL and −1.8 mg/dL and −2.8 mg/dL and −3.5 mg/dL (2×) and −2.4 mg/dL and −3.7 mg/dL (2×) and −2.7 mg/dL and −3.6 mg/dL (2×) and −3.3 mg/dL and −3.8 mg/dL and −2.2 mg/dL and −3.1 mg/dL and −2.3 mg/dL and −2.6 mg/dL
- sUA Percent Change from baseline [2, 6]: −9.21% and −35.80% and −28.00% and −16.90% and −22.78% and −41.43% and −43.08% and −40.23% and −35.82% and −36.63% and −41.54% and −46.75% and −28.38% and −37.08% and −43.18% and −31.43% and −40.70% and −39.13% and −48.68% and −42.47% and −35.38% and −32.50%

SMILES: COc1cc2c(c(OC)c1OC)-c1ccc(OC)c(=O)cc1[C@@H](NC(C)=O)CC2 [Colchicine, N-[1,2,3,10-Tetramethoxy-9-oxo-5,6,7,9-tetrahydrobenzo[a]heptalen-7(S)-yl]acetamide]
- inhibition of plasma extravasation [1, 7]: 52%
- reduction in inflammatory cell infiltration [1, 7]: 88%
- Average Exudate Volume [1, 8]: 3.9 mL
- Average Plasma Extravasation, OD620 nm [1, 8]: 0.776
- Total WBC in Sample [1, 8]: 35131400
- WBC [1, 8]: 9215000 cells/ml

Source: patent publication US20100160351A1, “PHARMACEUTICAL COMPOSITIONS AND METHODS FOR TREATING HYPERURICEMIA AND RELATED DISORDERS” (NUON THERAPEUTICS, INC., priority 2008, published 2010)
